Test results taken from US6552001B1, “Method breeding and feeds” (Takara Shuzo Co., Ltd., priority 1998, dated 2003).

Columns and labels:
Format in all cases: in vivo
lymphocystis disease [1] = assay: feed for bastard halibuts with lymphocystis disease cultured in sea (Example 2); settings: fishes without infection similarly treated
Procedure: A feed for young bastard halibuts (average body weight: 350 g) suffered from lymphocystis disease during culturing in sea was prepared by adding 3 kg of the heat treatment product of alginic acid as described in Referential Example 1-(1) to 136 kg of the moist feed as shown in Table 2 below. The feed was given to the fishes once in two days such that the heat treatment product of alginic acid was given at 1.2 g/kg/feeding.

white-mouth disease = assay: feed for tiger globefishes with white-mouth disease (Example 4); settings: fishes without infection similarly treated
Procedure: A feed containing the heat treatment product of alginic acid to be given a day to 2000 tiger globefishes (average body weight: 450 g) suffered from white-mouth disease during culturing in sea was prepared upon use as follows. 1.11 kg of the heat treatment product of alginic acid as described in Referential Example 1-(1) was dissolved in water to a volume of 1.5 l. 10 kg of dry pellet feed (Otohime for globefish: Nisshin Flour Milling) was soaked with the solution. The entire feed was given to the fishes once a day such that 20 mg/kg body weight/day of cyclopentenone was given (group administered with the feed containing the heat treatment product of alginic acid).
As a control, 10 kg of the dry pellet feed (otohime for globefish: Nisshin Flour Milling) was given to 2000 tiger globefishes with white-mouth disease (average body weight: 450 g) once a day (control group)

lymphocystis disease [2] = assay: soaking plus feed for bastard halibuts with lymphocystis disease cultured on land (Example 1); settings: fishes without lymphocystis disease (preventive)
Procedure: Then, the water was replaced with seawater. A feed for diseased bastard halibuts was prepared by adding 7 kg of the heat treatment product of alginic acid to 134 kg of the moist feed as shown in Table 1 below. The feed was given to the soaked bastard halibuts twice a day such that the heat treatment product of alginic acid was given at 0.78 g/kg/day.

[3] = single oral administration to a mouse, death; settings: single dosage of 100 mg/kg
gliding bacteria disease = assay: young bastard halibuts with gliding bacteria disease, soaking or feed (Example 3); settings: fishes without infection similarly treated
Procedure: Young bastard halibuts with gliding bacteria disease (body weight: about 4 g) cultured on land were divided into four groups. Effect of the heat treatment product of alginic acid as described in Referential Example 1-(1) on gliding bacteria disease was examined.
Control group: 2400 young bastard halibuts were fed with commercially available dry pellets (Otohime No. 4: Nisshin Flour Milling) once a day. They were bred in a 25000-l seawater tank.
Soaked group: A water tank for soaking was prepared by adding 880 g of the heat treatment product of alginic acid to 400 l of seawater and starting oxygen supply. 2375 young bastard halibuts were distributed in baskets such that several hundreds of the fishes were contained in a basket. They were soaked in the water tank for soaking for 30 minutes. After soaking, they were bred in a 25000-l seawater tank being fed with commercially available dry pellets once a day.
Group administered with the heat treatment product of alginic acid (1): 2380 young bastard halibuts were bred in a 25000-l seawater tank being fed once a day with a feed prepared by adding 500 g of the heat treatment product of alginic acid to 78 kg of a moist feed as shown in Table 3 below. […]

With O=C1C=CC(O)C1O (centres unmarked) [cyclopentenone, 4,5-dihydroxy-2-cyclopenten-1-one] the occurrence of infection (lymphocystis disease [1]) was “no occurrence of infection”, the occurrence of infection (white-mouth disease) was “no occurrence of infection” and the “occurrence of lymphocystis disease” value (lymphocystis disease [2]) was “no occurrence”. For the same compound, the death [3] was “No death” and the occurrence of infection (gliding bacteria disease) was “no occurrence of infection”.
